Tests used:
[1] = test system: manna grass; assay: Experiment 1 foliar application to naturally growing weeds; type: in vivo, Digitaria adsceudes Henr.; settings: 2 months
Procedure, shortened: (§1)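 Foliar spray on field weeds at 150 liter per 10 are, compounds at prescribed concentrations plus 0.1% octylphenyl polyoxyethanol. Day 21: killing index 0–5 (5 = death). Reproduction scored (-) to (+++) (- = none): cockspar grass at 2 months, chigaya, azumanezasa and warunasubi at 4 months.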

[2] = test system: cockspar grass; assay: as above; type: in vivo, Echinochloa Crusgalli P. Beauv.; settings: 2 months
Procedure, shortened: as §1

[3] = test system: warunasubi; assay: as above; type: in vivo, Solanum carolinensis L.; settings: for Reproduction-inhibiting effect: 4 months
Procedure, shortened: as §1

[4] = test system: Japanese bush cranberry; assay: Experiment 3 foliar application to naturally growing shrubs; type: in vivo, Viburnum dilatatum Thunb.; settings: after 3 months
Procedure, shortened: (§2)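 Sprays contained 0.1% octylphenyl polyoxyethanol and compound diluted to prescribed concentrations. They were applied to the leaves of wild shrubs at a rate of 150 liter per 10 are. Damage was rated 0–5 after one and three months, and regrowth − to +++ after three months.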

[5] = test system: kiichigo; assay: as above; type: in vivo, Rubus palmatsu Thunb. forma coptophyllus Makino; settings: after 3 months
Procedure, shortened: as §2

[6] = test system: Japanese prickly ash; assay: as above; type: in vivo, Xanthoxylum piperitum DC.; settings: after 3 months
Procedure, shortened: as §2

[7] = test system: yamazakura; assay: as above; type: in vivo, Prunus donarium Sieb. var. spontanae Makino; settings: after 3 months
Procedure, shortened: as §2

[8] = test system: oak; assay: as above; type: in vivo, Quercus serrata Thunb; settings: after 3 months
Procedure, shortened: as §2

[9] = test system: omodaka; assay: Experiment 6 spray on aquatic plants in concrete pots; type: in vivo, Sagittaria trifolia L.; settings: for Reproduction-inhibiting effect: 3 months
Description: (§3) The detail of the assessment made in the following Experiments of the invention was as follows:
(§4) Four months after treatment, evaluation was made for inhibition of reproduction expressed in terms of symbols ranging from (-) to (+++) where (-) means no reproduction, namely complete suppression of reproduction, (±) remarkable suppression of reproduction; (+) considerable suppression of reproduction; (++) medium supprestion of reproduction; and (+++) no suppression of reproduction.
(§5) A paddy field soil was packed in 50 cm. square concrete pots. omodaka (Sagittaria trifolia L.), urikawa (Sagittaria pygmaea Miq.), prog-bit (Hydrocharis dubia) and aginashi (Sagittaria Aginashi Makino) were transplanted; then water was poured onto the soil at 5 cm. depth.
(§6) Further, water hyacinth, greater-duckweed (Spirodela polyrhiza Schleid.) and duckweed (Lemna paucicostata Hegelm) were floated on the water.
(§7) After one month, the compounds of the invention diluted to the prescribed concentrations as indicated in Table 8 were sprayed in an amount of 100 liter per 10 are. As a surfactant, 0.1% of octylphenyl polyoxyethanol was added thereto.
(§8) The killing index (0, no effect; 5, death) after 21 days and 3 months and the reproduction-inhibiting effect (-, no reproduction; +++, maximum reproduction) after 3 months were determined.

[10] = test system: urikawa; assay: as above; type: in vivo, Sagittaria pygmaea Miguel; settings: 3 months
Description: as §3, §4, §5, §6, §7, §8

[11] = test system: progbit; assay: as above; type: in vivo, Hydrocharis dubia; settings: 3 months
Description: as §3, §4, §5, §6, §7, §8

[12] = test system: aginashi; assay: as above; type: in vivo, Sagittaria Aginashi Makino; settings: 3 months
Description: as §3, §4, §5, §6, §7, §8

[13] = test system: water hyacinth; assay: as above; type: in vivo, Eichhornia crassipes Solms; settings: 3 months
Description: as §3, §4, §5, §6, §7, §8

[14] = test system: greaterduckweed; assay: as above; type: in vivo, Spirodela polyrhiza Sohleid.; settings: 3 months
Description: as §3, §4, §5, §6, §7, §8

[15] = test system: duckweed; assay: as above; type: in vivo, Lemna paucicostata Hegelm; settings: 3 months
Description: as §3, §4, §5, §6, §7, §8

[16] = test system: hornwort; assay: Experiment 7 application to water; type: in vivo, Ceratophyllum demersum L.; set-up: scale not given here
Description: (§9) A black soil was packed in 50 cm. square concrete pots and water was poured there-onto at 50 cm. in depth. Hornwort (Ceratophyllum demersum L.), stonewort (Chara Braunii Gmel.) and salvinia (Salvinia natans All.) were transplanted and pond scum (Spirogira crassa Kutz) and diatoms (Bacillariophyta) were floated in the water.
(§10) Then, the compounds of the invention were applied dropwise onto the surface of the water so that the prescribed concentrations in the water are obtained as indicated in Table 9.

[17] = test system: stonewort; assay: Experiment 7 application to water; type: in vivo, Chara Braunii Gmel.; set-up: scale not given here
Description: as §9, §10

[18] = test system: pond scum; assay: Experiment 7 application to water; type: in vivo, Spirogira crassa Kutz.; set-up: scale not given here
Description: as §9, §10

[19] = test system: diatoms; assay: Experiment 7 application to water; type: in vivo, Bacillariophyta; set-up: key: 0: no effect; 5: perfect control
Description: as §9, §10

With CP(=O)(O)CCC(N)C(=O)O (racemic) [DL-AMPB choline] the Reproduction-inhibiting effect ([1]; 0.05%) was “++”, the Reproduction-inhibiting effect ([1]; 0.1%) was “±” and the Reproduction-inhibiting effect ([1]; 0.2%) was “-”. The Reproduction-inhibiting effect ([2]; 0.05%) was “++”, the Reproduction-inhibiting effect ([2]; 0.1%) was “±” and the Reproduction-inhibiting effect ([2]; 0.2%) was “-”. The Reproduction-inhibiting effect ([3]; 0.05%) was “++”, the Reproduction-inhibiting effect ([3]; 0.1%) was “±” and the “Killing index of Upperground parts” value ([3]; 0.1%, 21 days) was 4.5. For the same molecule, the Reproduction-inhibiting effect ([3]; 0.2%) was “-”, the Reproduction-inhibiting ([4]; 0.05%) was “+++” and the Reproduction-inhibiting ([4]; 0.1%) was “++”. The Reproduction-inhibiting ([4]; 0.2%) was “+”, the Reproduction-inhibiting ([5]; 0.05%) was “+” and the Killing index ([5]; 0.1%) was 4.5. The Reproduction-inhibiting ([5]; 0.1%) was “±”, the Reproduction-inhibiting ([5]; 0.2%) was “-” and the Reproduction-inhibiting ([6]; 0.05%) was “++”. The Reproduction-inhibiting ([6]; 0.1%) was “+”, the Reproduction-inhibiting ([6]; 0.2%) was “-” and the Reproduction-inhibiting ([7]; 0.05%) was “++”. For the same molecule, the Reproduction-inhibiting ([7]; 0.1%) was “-”, the Reproduction-inhibiting ([7]; 0.2%) was “-” and the Reproduction-inhibiting ([8]; 0.05%) was “++”. For the same molecule, the Reproduction-inhibiting ([8]; 0.1%) was “-”, the Reproduction-inhibiting ([8]; 0.2%) was “-” and the Reproduction-inhibiting effect ([9]; 0.05%) was “++”. For the same molecule, the Reproduction-inhibiting effect ([9]; 0.1%) was “±”, the Reproduction-inhibiting effect ([9]; 0.2%) was “-” and the Killing index ([9]; 0.2%, 21 days) was 4.5. The Reproduction-inhibiting effect ([10]; 0.05%) was “++”, the Reproduction-inhibiting effect ([10]; 0.1%) was “+” and the Reproduction-inhibiting effect ([10]; 0.2%) was “-”. For the same molecule, the Reproduction-inhibiting effect ([11]; 0.05%) was “++”, the Reproduction-inhibiting effect ([11]; 0.1%) was “±” and the Reproduction-inhibiting effect ([11]; 0.2%) was “-”. For the same molecule, the Reproduction-inhibiting effect ([12]; 0.05%) was “++”, the Reproduction-inhibiting effect ([12]; 0.1%) was “±” and the Reproduction-inhibiting effect ([12]; 0.2%) was “-”. For the same molecule, the Reproduction-inhibiting effect ([13]; 0.05%) was “+++”, the Reproduction-inhibiting effect ([13]; 0.1%) was “++” and the Reproduction-inhibiting effect ([13]; 0.2%) was “-”. The Reproduction-inhibiting effect ([14]; 0.05%) was “+”, the Reproduction-inhibiting effect ([14]; 0.1%) was “-” and the Reproduction-inhibiting effect ([14]; 0.2%) was “-”. The Reproduction-inhibiting effect ([15]; 0.05%) was “+”, the Reproduction-inhibiting effect ([15]; 0.1%) was “-” and the Reproduction-inhibiting effect ([15]; 0.2%) was “-”. For the same molecule, the controlling effect ([16]; 1 ppm, 3 months) was 1, the controlling effect ([16]; 1 ppm, 21 days) was 2 and the controlling effect ([16]; 3 ppm, 3 months) was 5. It also gave a controlling effect ([16]; 3 ppm, 21 days) of 4.5, a controlling effect ([16]; 10 ppm, 3 months) of 5 and a controlling effect ([16]; 10 ppm, 21 days) of 5. The controlling effect ([17]; 1 ppm, 3 months) was 1, the controlling effect ([17]; 1 ppm, 21 days) was 3 and the controlling effect ([17]; 3 ppm, 3 months) was 5. The controlling effect ([17]; 3 ppm, 21 days) was 4.5, the controlling effect ([17]; 10 ppm, 3 months) was 5 and the controlling effect ([17]; 10 ppm, 21 days) was 5. The controlling effect ([18]; 1 ppm, 3 months) was 1, the controlling effect ([18]; 1 ppm, 21 days) was 2 and the controlling effect ([18]; 3 ppm, 3 months) was 5. For the same molecule, the controlling effect ([18]; 3 ppm, 21 days) was 4, the controlling effect ([18]; 10 ppm, 3 months) was 5 and the controlling effect ([18]; 10 ppm, 21 days) was 5. For the same molecule, the controlling effect ([19]; 1 ppm, 3 months) was 1, the controlling effect ([19]; 1 ppm, 21 days) was 3 and the controlling effect ([19]; 3 ppm, 3 months) was 5. The controlling effect ([19]; 3 ppm, 21 days) was 4, the controlling effect ([19]; 10 ppm, 3 months) was 5 and the controlling effect ([19]; 10 ppm, 21 days) was 5.

Source: patent US4226610A, “Herbicidal compounds, preparation thereof and herbicides containing the same” (Meiji Selka Kaisha, Ltd., priority 1978, dated 1980)
